Assay results taken from US20240109861A1, “SERIES OF PIPERIDINE-SUBSTITUTED BENZOIC ACID COMPOUNDS, AND USE THEREOF” (priority 2020, published 2024).
Marks after values point to notes of the source that are not given here.

Columns and labels:
[1] = tested on: LPS-induced complement activation (plasma C3d protein levels); test: In vivo PD model of LPS-induced complement activation in mice; parameters: species or system female C57BL/6J mice; details: for inhibition of C3d levels (LPS-induced complement activation): LPS i.p., plasma Western blot, FIG. 1; for inhibitory effect compared with LNP023: LPS-induced complement activation, C3d levels
Procedure: Experimental objective: To investigate the inhibitory effect of the compounds of the present disclosure on complement activation in mice induced by LPS stimulation. Experimental animals: female C57BL/6J mice, 7 to 9 weeks old, weighing 17 to 23 g; supplier: Shanghai Sipple-Bikai Laboratory Animal Co., Ltd.
Experimental procedure: 100 μg of lipopolysaccharide (LPS) in Salmonella typhimurium (Sigma) dissolved in 100 μL of sterile PBS was intraperitoneally injected to induce complement activation in mice. Negative control animals were intraperitoneally injected 100 μL of sterile PBS, and administered alone by tube feeding (PO). Positive control animals were intraperitoneally injected LPS and PO drug vehicles (0.5% (w/v) methyl cellulose and 0.5% (v/v) Tween 80). The time points for administration and plasma collection are as follows:
(§1) Sample collection: 0.3 mL of blood samples were collected from the orbital venous plexus. All blood samples were added to 1.5 mL commercial EDTA-K2 anticoagulant tubes (supplied by Jiangsu Kangjian Medical Apparatus Co., Ltd.). After collection, within half an hour, the blood sample was centrifuged at 4° C., 3000 g for 10 min to aspirate the supernatant plasma, which was put in dry ice immediately, and stored in a refrigerator at −80° C. for Western blot analysis of downstream C3d protein levels after complement activation.

[2] = tested on: Sheep Anti-Rat Fx1A Serum induced Heymann nephritis; test: In vivo pharmacodynamic model of passive Heymann nephritis in rats; parameters: species or system male SD rats; details: intragastric twice a day for 14 days, FIG. 2
From the text: Experimental objective: To investigate the ability of the compounds of the present disclosure to improve renal function of Sheep Anti-Rat Fx1A Serum induced Heymann nephritis in rats, including the evaluation of reducing proteinuria level and improving renal tissue damage.
Experimental animals: male SD rats, 7 to 10 weeks old, weighing 200 to 300 g; supplier: Beijing Vital River Laboratory Animal Technology Co., Ltd.
Urine was collected from rats on D-2 before administration. […]
Kidney sample collection: All animals were euthanized with CO2 inhalation anesthesia on Day 15, and bilateral kidneys were collected. […] Urine total protein (uTP) in rats was detected without dilution; if exceeding the upper detection limit, it was 10-fold diluted (10 μL of sample+90 μL of saline (0.9% saline)) first (Decrease mode); if still exceeding the upper detection limit after 10-fold dilution, it was 100-fold diluted (2 μL of sample+198 μL of saline (0.9% saline)) (Increase mode). Data were read by the analytical instrument HITACHI LST008 AS (P). • (2) Kidney pathological scoring: The degree of drug damage to rat kidneys (paraffin sections) was analyzed by HE staining. […]

[3] = Pharmacokinetic study in mice; type: in vivo, male C57BL/6J mice
Procedure: Experimental objective: To investigate in vivo plasma pharmacokinetics of the compounds of the present disclosure after a single intravenous injection and intragastric administration in male C57BL/6J mice.
Experimental animals: male C57BL/6J mice, 7 to 9 weeks old, weighing 17 to 23 g; supplier: Shanghai Sipple-Bikai Laboratory Animal Co., Ltd.
as §1, with “0.03” for “0.3”, “by puncture of” for “from”, “saphenous vein in experimental animals at each time point, and the actual blood collection time was recorded.” for “orbital venous plexus.”, “LC-MS/MS analysis.” for “Western blot analysis of downstream C3d protein levels after complement activation.”
Data analysis: Plasma concentrations were processed using the non-compartmental model of WinNonlinTM Version 6.3 (Pharsight, Mountain View, CA) pharmacokinetic software, and pharmacokinetic parameters Cl, T1/2, Cmax, and AUC0-last were calculated using the linear/log trapezoidal method.

[4] = Pharmacokinetic study in rats; type: in vivo, male Wistar Han rats
Procedure: Experimental objective: To investigate in vivo plasma pharmacokinetics of the compounds of the present disclosure after a single intravenous injection and intragastric administration in male Wistar Han rats.
Experimental procedure: injection administration (IV): a dose of 1 mpk (vehicle: 30% PEG300/10% Cremphor EL/60% PBS (1×pH 7.4)); oral administration (PO): a dose of 5 mpk or 30 mpk (vehicle: 30% PEG300/10% Cremphor EL/60% PBS (1×pH 7.4))
Sample collection: About 0.3 mL of blood samples were collected by puncture of the jugular vein in experimental animals at each time point, and the actual blood collection time was recorded. All blood samples were added to 1.5 mL commercial EDTA-K2 anticoagulant tubes (supplied by Jiangsu Kangjian Medical Apparatus Co., Ltd.). After collection, the blood sample was centrifuged at 4° C., 3200 g for 10 min to aspirate the supernatant plasma, which was put in dry ice immediately, and stored in a refrigerator at −80° C. for LC-MS/MS analysis.
Data analysis: Plasma concentrations were processed using the non-compartmental model of Phoenix WinNonlin 6.3 pharmacokinetic software, and pharmacokinetic parameters Cl, Cmax, T1/2, and AUC0-last were calculated using the linear/log trapezoidal method.

[5] = molecular target: alternative complement pathway in human serum; test: Wieslab alternative complement pathway activation inhibition (enzyme activity test); type: biochemical; details: human serum diluted 1:23, Wieslab alternative pathway kit; read-out: AP MAC IC50
Procedure: The objective of this experiment is to determine the inhibitory activity of the compounds of the present disclosure on the alternative complement pathway in human serum by using the Wieslab® complement system alternative pathway kit.
Serum was diluted with diluent (1:23). Drugs were added to the diluted serum with 8 concentration gradients of up to 10 mM or 50 mM in a 5-fold serial dilution. […] The mixture of compound and serum was added to a 96-well plate (100 μL/well) provided in the kit, and activated at 37° C. for 1 hour. The plate was washed three times with wash buffer. The plate was added with detection antibody (100 μL) provided in the kit and incubated at room temperature for 30 min. The plate was washed three times with wash buffer. The plate was added with substrate (100 μL) and incubated at room temperature for 30 min.

[6] = male, C57BL/6J, mouse, plasma, 1 mg/kg, IV (1 mpk)
[7] = male, C57BL/6J, mouse, plasma, 10 mg/kg, PO (10 mpk)
[8] = male, Wistar Han, rat, plasma, 1 mg/kg, IV (1 mpk)

Row | SMILES | inhibition of C3d levels (LPS-induced complement activation) [1] | inhibitory effect compared with LNP023 [1] | Cl ([3]; IV (1 mpk)) [mL/min/kg] | T1/2 ([3]; IV (1 mpk)) [h] | AUC0-last ([3]; PO (10 mpk)) [µM·h] | Cmax ([3]; PO (10 mpk)) [nM] | IC50 [5] [nM] | other results
1 | CCO[C@H]1CCN(Cc2c(OC)cc(C)c3[nH]ccc23)[C@H](c2ccc(C(=O)O)cc2)C1 [LNP023, reference compound] | significantly inhibit C3d levels | – | – | – | – | – | – | urinary protein levels and renal function [2]: significantly inhibit urinary protein levels in rats and improve renal function in rats; clearance [3, 6]: 18.4 mL/min/kg; half-life [3, 6]: 1.3 h; AUC(0-t) [3, 7]: 9.3 µM·h; Cmax [3, 7]: 2500 nM; clearance [4, 8]: 6.7 mL/min/kg; half-life [4, 8]: 1.2 h; AUC(0-t) ([4]; male, Wistar Han, rat, plasma, 30 mg/kg, PO, a dose of 30 mpk, dose-normalized data): 2.19 µM·h; bioavailability ([4]; male, Wistar Han, rat, plasma, PO (5 mpk or 30 mpk)): 38%; Cmax ([4]; male, Wistar Han, rat, plasma, PO (5 mpk or 30 mpk), dose-normalized data): 379 nM
2 | COc1cc(C)c2[nH]ccc2c1CN1CC[C@@H](C2CC2)C[C@H]1c1ccc(C(=O)O)cc1 [Compound 3C] | significantly inhibit C3d levels | better inhibitory effect than that of LNP023 | 11.1 | 3.4 | 23.3 | 6320 | 51.7 | Cl ([4]; IV (1 mpk)): 4.6 mL/min/kg; T1/2 ([4]; IV (1 mpk)): 3.8 h; F % ([4]; PO (5 mpk or 30 mpk)): 62%; Cmax ([4]; PO (5 mpk or 30 mpk), dose-normalized data): 838 nM; AUC0-last ([4]; PO, a dose of 5 mpk, dose-normalized data): 5399^a nM · h
3 | COc1cc(C)c2[nH]ccc2c1CN1CC[C@H](C2CC2)C[C@H]1c1ccc(C(=O)O)cc1 [Compound 3A] | significantly inhibit C3d levels | better inhibitory effect than that of LNP023 | 12.0 | 3.9 | 11.156 | 4770 | 23.6 | –
